From patent US20240166617A1, “PHOSPHOINOSITIDE 3 KINASE BETA INHIBITORS AND COMPOSITIONS AND METHODS THEREOF” (Geode Therapeutics Inc., priority 2021, published 2024)
Read-outs that look alike come from different tables or passages of the source.

What was measured:
PIK3Cb_h = biological target: T1, PIK3Cb_h (Homo sapiens, UniProt P42338); test: Enzyme binding assay (KINOMEscan); conditions: Eurofins DiscoveRx
T1 construct: purchased Eurofins DiscoveRx Corporation
Experimental: (§1) Kinase enzyme binding affinities of compounds disclosed herein were determined using the KINOMEscan technology performed by Eurofins DiscoveRx Corporation, San Diego, California, USA (www.eurofinsdiscoveryservices.com). Table 2 reports the obtained PIK3β Kd values (nM) of, with the PIK3β Kd being the inhibitor binding constant. Table 3 reports the obtained Kd values (nM), with the Kd being the inhibitor binding constant: […]

PIK3Cg_h = biological target: T2, PIK3Cg_h (Homo sapiens, UniProt P48736); test: Enzyme binding assay (KINOMEscan); conditions: Eurofins DiscoveRx
T2 construct: purchased Eurofins DiscoveRx Corporation
T2 sequence (P48736 whole entry): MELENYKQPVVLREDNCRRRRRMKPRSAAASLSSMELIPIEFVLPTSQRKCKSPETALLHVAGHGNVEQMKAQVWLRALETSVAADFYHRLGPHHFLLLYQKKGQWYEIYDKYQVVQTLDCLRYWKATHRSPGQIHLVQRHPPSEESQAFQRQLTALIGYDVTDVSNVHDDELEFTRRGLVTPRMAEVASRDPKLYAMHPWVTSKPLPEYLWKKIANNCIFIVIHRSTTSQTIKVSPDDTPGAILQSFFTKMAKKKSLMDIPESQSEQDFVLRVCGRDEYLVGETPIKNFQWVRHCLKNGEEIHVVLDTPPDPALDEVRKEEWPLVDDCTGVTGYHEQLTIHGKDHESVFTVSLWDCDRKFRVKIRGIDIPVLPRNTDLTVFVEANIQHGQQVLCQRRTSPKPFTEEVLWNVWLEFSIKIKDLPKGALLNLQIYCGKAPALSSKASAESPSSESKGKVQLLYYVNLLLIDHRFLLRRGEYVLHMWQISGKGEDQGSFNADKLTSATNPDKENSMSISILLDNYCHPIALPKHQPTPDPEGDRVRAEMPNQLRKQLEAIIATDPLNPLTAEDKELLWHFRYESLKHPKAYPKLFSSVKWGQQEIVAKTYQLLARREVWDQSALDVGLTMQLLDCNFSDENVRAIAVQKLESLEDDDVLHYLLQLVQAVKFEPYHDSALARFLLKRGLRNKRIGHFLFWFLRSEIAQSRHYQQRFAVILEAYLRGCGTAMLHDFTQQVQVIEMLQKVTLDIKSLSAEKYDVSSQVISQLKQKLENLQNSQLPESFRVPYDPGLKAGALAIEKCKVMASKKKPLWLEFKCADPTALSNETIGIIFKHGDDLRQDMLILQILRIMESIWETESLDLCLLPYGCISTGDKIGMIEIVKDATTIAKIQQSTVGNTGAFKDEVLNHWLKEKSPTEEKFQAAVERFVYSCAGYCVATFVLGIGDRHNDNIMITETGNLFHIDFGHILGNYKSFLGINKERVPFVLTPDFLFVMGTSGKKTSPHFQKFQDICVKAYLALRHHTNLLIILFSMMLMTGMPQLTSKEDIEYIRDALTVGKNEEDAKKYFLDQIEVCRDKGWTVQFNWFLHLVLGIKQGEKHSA
Experimental: as §1

PIK3Ca_h = biological target: T3, PIK3Ca_h (Homo sapiens, UniProt P42336); test: Enzyme binding assay (KINOMEscan); conditions: Eurofins DiscoveRx
T3 construct: purchased Eurofins DiscoveRx Corporation
T3 sequence (P42336 whole entry): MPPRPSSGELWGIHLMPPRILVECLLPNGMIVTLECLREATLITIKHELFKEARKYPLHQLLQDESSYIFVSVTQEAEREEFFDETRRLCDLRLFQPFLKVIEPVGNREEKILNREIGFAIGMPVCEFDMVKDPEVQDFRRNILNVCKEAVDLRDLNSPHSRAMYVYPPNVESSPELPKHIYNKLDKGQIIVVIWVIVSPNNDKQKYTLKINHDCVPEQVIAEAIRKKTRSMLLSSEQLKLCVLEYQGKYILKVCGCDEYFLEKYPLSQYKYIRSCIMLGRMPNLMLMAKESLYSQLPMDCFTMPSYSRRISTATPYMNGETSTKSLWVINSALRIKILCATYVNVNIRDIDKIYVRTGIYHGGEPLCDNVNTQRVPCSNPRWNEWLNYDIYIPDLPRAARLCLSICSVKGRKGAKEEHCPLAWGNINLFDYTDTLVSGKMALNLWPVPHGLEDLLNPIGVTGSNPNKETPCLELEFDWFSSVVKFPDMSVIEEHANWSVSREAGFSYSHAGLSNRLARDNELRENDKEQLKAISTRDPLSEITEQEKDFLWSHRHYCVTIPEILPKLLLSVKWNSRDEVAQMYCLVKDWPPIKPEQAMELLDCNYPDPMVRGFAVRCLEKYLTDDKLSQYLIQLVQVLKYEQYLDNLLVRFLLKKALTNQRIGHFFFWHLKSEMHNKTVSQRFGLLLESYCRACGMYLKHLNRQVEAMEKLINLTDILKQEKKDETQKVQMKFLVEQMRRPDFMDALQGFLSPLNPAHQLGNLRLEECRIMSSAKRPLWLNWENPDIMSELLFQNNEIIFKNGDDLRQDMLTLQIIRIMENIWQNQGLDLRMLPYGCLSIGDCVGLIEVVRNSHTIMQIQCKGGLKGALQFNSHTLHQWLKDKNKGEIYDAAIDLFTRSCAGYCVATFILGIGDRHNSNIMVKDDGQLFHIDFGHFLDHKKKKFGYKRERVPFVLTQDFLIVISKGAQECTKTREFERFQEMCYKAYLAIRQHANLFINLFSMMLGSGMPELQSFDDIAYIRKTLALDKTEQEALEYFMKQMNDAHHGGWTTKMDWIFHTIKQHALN
Experimental: as §1

PIK3Cd_h = biological target: T4, PIK3Cd_h (Homo sapiens, UniProt O00329); test: Enzyme binding assay (KINOMEscan); conditions: Eurofins DiscoveRx
T4 construct: purchased Eurofins DiscoveRx Corporation
T4 sequence (O00329 1-1044): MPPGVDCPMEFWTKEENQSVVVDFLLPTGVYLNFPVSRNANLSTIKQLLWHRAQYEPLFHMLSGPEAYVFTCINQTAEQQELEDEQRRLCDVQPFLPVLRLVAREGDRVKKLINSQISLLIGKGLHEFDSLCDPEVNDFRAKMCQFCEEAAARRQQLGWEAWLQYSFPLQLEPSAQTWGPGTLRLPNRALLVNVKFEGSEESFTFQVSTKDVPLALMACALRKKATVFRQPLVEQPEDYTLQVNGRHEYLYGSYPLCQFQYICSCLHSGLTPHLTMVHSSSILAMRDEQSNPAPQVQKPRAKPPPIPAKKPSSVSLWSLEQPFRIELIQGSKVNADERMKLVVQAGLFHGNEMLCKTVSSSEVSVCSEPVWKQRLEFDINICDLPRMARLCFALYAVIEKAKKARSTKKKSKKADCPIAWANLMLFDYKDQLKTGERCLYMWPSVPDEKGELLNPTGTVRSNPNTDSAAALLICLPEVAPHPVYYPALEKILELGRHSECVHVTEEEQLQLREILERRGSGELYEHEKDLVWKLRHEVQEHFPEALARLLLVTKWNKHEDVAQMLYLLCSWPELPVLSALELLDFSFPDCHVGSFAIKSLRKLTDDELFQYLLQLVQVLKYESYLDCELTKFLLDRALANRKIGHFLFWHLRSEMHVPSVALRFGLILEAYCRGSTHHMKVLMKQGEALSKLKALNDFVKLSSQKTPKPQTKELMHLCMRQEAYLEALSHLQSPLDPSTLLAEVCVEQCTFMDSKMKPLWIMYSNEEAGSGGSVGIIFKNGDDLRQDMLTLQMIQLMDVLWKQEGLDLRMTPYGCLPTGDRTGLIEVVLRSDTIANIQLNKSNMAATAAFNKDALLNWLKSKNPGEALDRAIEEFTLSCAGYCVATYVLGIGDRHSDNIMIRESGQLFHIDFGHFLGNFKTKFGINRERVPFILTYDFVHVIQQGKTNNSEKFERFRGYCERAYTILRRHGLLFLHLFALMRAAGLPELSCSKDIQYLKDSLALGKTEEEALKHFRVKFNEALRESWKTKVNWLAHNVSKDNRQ
Experimental: as §1

[1] = system: phosphorylation of AKT in HCC70 cells; test: Cellular assay: phosphorylation of AKT in HCC70 cells (western blotting); format: cell-based; conditions: Homo sapiens, HCC70, 1 h, HCC70 cells, compound 500 nM, 60 min, inhibition of Akt activity from band intensities
Summary of the method: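 HCC70 cells treated with compound at 500 nM (0.1% DMSO control) for 60 min at 37 °C; pAKT Ser473 and Thr308 plus total AKT measured by western blot with fluorescent detection. Inhibition from band intensities, binned as + (20–60%), ++ (60–80%), +++ (80–90%), ++++ (>90%).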

[2] = read-out: Index of AI (HCC70) p-AKT Thr 308
[3] = read-out: Index of AI (HCC70) p-AKT ser 473

T1 sequence (P42338 whole entry): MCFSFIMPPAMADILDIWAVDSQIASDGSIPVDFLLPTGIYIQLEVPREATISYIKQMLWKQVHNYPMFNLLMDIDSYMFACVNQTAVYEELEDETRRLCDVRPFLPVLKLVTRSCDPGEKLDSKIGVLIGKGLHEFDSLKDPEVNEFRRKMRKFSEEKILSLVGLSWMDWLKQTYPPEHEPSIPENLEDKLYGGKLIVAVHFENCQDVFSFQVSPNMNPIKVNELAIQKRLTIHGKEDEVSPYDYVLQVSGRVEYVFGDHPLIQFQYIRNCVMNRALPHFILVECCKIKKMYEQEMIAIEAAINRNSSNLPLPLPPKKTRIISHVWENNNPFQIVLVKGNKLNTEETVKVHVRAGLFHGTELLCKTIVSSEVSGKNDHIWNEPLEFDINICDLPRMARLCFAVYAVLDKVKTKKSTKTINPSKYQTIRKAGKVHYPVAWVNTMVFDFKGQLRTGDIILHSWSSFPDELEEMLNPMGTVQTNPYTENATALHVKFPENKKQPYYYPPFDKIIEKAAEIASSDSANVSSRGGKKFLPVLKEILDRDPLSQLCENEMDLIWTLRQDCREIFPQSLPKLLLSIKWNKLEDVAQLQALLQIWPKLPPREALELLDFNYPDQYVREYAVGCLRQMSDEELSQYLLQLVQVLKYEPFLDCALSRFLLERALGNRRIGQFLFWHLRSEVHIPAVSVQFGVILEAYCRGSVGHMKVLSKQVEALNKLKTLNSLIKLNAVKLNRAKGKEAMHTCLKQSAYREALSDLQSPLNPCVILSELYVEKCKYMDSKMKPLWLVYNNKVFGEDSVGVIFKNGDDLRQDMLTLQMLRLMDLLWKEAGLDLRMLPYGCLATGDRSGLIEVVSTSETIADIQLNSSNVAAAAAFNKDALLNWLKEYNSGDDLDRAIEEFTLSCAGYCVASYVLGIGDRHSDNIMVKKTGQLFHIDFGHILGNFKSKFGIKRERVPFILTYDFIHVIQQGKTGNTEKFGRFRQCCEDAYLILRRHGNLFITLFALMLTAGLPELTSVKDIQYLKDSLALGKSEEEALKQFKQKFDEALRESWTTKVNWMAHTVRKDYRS

| SMILES | Kd (PIK3Cb_h) [nM] | Kd (PIK3Cg_h) [nM] | Kd (PIK3Ca_h) [nM] | Kd (PIK3Cd_h) [nM] | inhibition at 0.5 µM [1, 2] [%] | inhibition at 0.5 µM [1, 3] [%] |
| --- | --- | --- | --- | --- | --- | --- |
| C[C@@H]1CN(c2cc(=O)c3cc(C(=O)N(C)C)cc(CN4CCc5c(F)cccc54)c3o2)CCO1 [Compound 91, (R)-8-((4-fluoroindolin-1-yl)methyl)-N,N-dimethyl-2-(2-methylmorpholino)-4-oxo-4H-chromene-6-carboxamide] | 1 | 230 | 22 | 7.4 | > 90 | > 90 |
| CC(Nc1cc(F)cc(F)c1)c1cc(N2CCOCC2=O)cc2c(=O)cc(N3CCOCC3)oc12 (stereo not shown) [Compound 10, 4-(8-(1-((3,5-difluorophenyl)amino)ethyl)-2-morpholino-4-oxo-4H-chromen-6-yl)morpholin-3-one] | 0.2 | 730 | 22 | 8 | > 90 | > 90 |
| CC(Nc1cc(F)cc(F)c1)c1cc(C(=O)N2CCC(N(C)C)C2)cn2c(=O)cc(N3CCOCC3)nc12 (stereo not shown) [Compound 48, 9-(1-((3,5-difluorophenyl)amino)ethyl)-7-(3-(dimethylamino)pyrrolidine-1-carbonyl)-2-morpholino-4H-pyrido[1,2-a]pyrimidin-4-one] | 0.26 | 730 | 130 | 40 | 80 to 90 | 80 to 90 |
| CC(Nc1cc(F)cc(F)c1)c1cc(C(=O)N2CCC(N(C)C)C2)cn2c(=O)cc(N3CCOCC3)nc12 (single isomer, unassigned) [Compound 48-P1] | 400 | > 10000 | > 10000 | > 10000 | – | – |

Second part, led by results:

| Kd (PIK3Cb_h) [nM] | Kd (PIK3Cg_h) [nM] | Kd (PIK3Ca_h) [nM] | Kd (PIK3Cd_h) [nM] | SMILES | inhibition at 0.5 µM [1, 2] [%] | inhibition at 0.5 µM [1, 3] [%] |
| --- | --- | --- | --- | --- | --- | --- |
| 0.49 | 320 | 17 | 12 | CC1Cc2c(F)cccc2N1Cc1cc(C(=O)N(C)C)cc2c(=O)cc(N3CCOCC3)oc12 (stereo not shown) [Compound 33, 8-((4-fluoro-2-methylindolin-1-yl)methyl)-N,N-dimethyl-2-morpholino-4-oxo-4H-chromene-6-carboxamide] | > 90 | > 90 |
| 0.18 | 500 | 54 | 19 | CN(C)C(=O)c1cc(CN2CCc3c(F)cc(F)cc32)c2oc(N3CCOCC3)cc(=O)c2c1 [Compound 32, 8-((4,6-difluoroindolin-1-yl)methyl)-N,N-dimethyl-2-morpholino-4-oxo-4H-chromene-6-carboxamide] | > 90 | > 90 |
| 0.31 | 2200 | 45 | 58 | CC(Nc1cc(F)cc(F)c1)c1cc(NC2=NC(C)(C)CO2)cc2c(=O)cc(N3CCOCC3)oc12 (stereo not shown) [Compound 21, 8-(1-((3,5-difluorophenyl)amino)ethyl)-6-((4,4-dimethyl-4,5-dihydrooxazol-2-yl)amino)-2-morpholino-4H-chromen-4-one] | 80 to 90 | 80 to 90 |
| 0.19 | 110 | 36 | 8.1 | CNS(=O)(=O)c1cc(C(C)Nc2cc(F)cc(F)c2)c2oc(N3CCOCC3)cc(=O)c2c1 (stereo not shown) [Compound 16, 8-(1-((3,5-difluorophenyl)amino)ethyl)-N-methyl-2-morpholino-4-oxo-4H-chromene-6-sulfonamide] | > 90 | > 90 |
| 0.075 | 87 | 3.2 | 1.5 | C[C@@H]1CN(c2cc(=O)c3cc(C(=O)N(C)C)cc(CN4CCc5c(F)cc(F)cc54)c3o2)CCO1 [Compound 90, (R)-8-((4,6-difluoroindolin-1-yl)methyl)-N,N-dimethyl-2-(2-methylmorpholino)-4-oxo-4H-chromene-6-carboxamide] | > 90 | > 90 |
